Source: US12403132B2, “Methods of treating bone marrow failure syndromes and compositions for use in the same” (The Board of Trustees of the Leland Stanford Junior …, priority 2020, dated 2025)

Experiments:
c-Myb [1] = assay: c-Myb protein and phosphorylation by Western blot after p53 activation in Kp53A1 cells; format: cell-based, human
c-Myb [2] = assay: NLK kinase and ubiquitination assays with c-Myb as substrate, Kp53A1 cells; format: cell-based, human
Source text: FIG. 4. NLK phosphorylation of c-Myb results in ubiquitination and proteasome degradation. Fetal liver CD34+ progenitors transduced with shRNA against luciferase (shLuc) or RPS19 (shRPS19) in conjunction with siRNA against NLK (siNLK) or a non-targeting sequence (NT). Cells were differentiated for 5 days and split into three aliquots. One aliquot was lysed and probed for c-Myb, NLK, RPS19 and GAPDH protein expression by western blot, while the second aliquot was subjected to qRT-PCR to examine c-Myb mRNA expression (a) The third aliquot was analyzed for NLK activity by kinase assay (b—upper) and ubiquitination assay (b—lower). Orange, blue and green bars represent the extent of NLK, Myb and raptor phosphorylation respectively. Values are expressed as a fold relative to activity in controls (shLuc/NT). White, grey and black bars designate the substrates NLK, c-Myb and raptor respectively with values designating the extent of ubiquitination observed of each substrate relative to control. (c and d) Kp53A1 cells alone, or transfected with plasmids expressing NT or siNLK were cultured for 30 h at 37 or 32° C. prior to lysis and western blotting for c-Myb, NLK and GAPDH. Myb mRNA levels were determined by qRT-PCR. (c) and NLK kinase assays and cell ubiquitination assays were performed as above. (e) Kp53A1 cells were cultured at 37 (grey bars) or 32° C. […]

CD235+ erythroblasts [3] = assay: CD235+ erythroid expansion of differentiating human cord blood CD34+ progenitors (shRPS19/shRPL11 DBA models), flow cytometry; format: cell-based; conditions: control (shLuc), exogenous TGFβ 5 ng/ml
Experimental: FIG. 7. […] (a) Differentiating cord blood CD34+ progenitors were transduced with shRNA against luciferase or RPS19 and treated with inhibitors at working concentrations for TGFβ inhibition every three days. Cells were counted and CD235+ erythroid cells were assessed by flow cytometry after 15 days. (b) Prior to flow cytometry, 5000 cells per group were taken from differentiating cultures for NLK kinase assay. (c) CD34+ progenitors were transduced with shRNA against luciferase or RPS19 and non-targeting or siRNA against NLK. After sorting, samples were split into two groups and either treated with vehicle or SD208 every three days. After 15 days cells were counted and subject to flow cytometry to compare the expansion of maturing CD235+ erythroid (left panel) and CD11b+ myeloid cells (right panel). (d) Cord Blood CD34+ progenitors were transduced with shRNA against luciferase (left panel) or RPS19 (right panel) differentiated in erythroid media for 15 days alone, or in the presence of SB525334 or SD208 at 5 μM. Cells were counted and CD235+ erythroid (D—upper) and CD11b+ myeloid cell (D—lower) percentages were determined by flow cytometry. The number of erythroid or myeloid cells is expressed as a percentage of the number of that lineage with no cytokine or drug treatment.
FIG. 8. […] Human cord blood CD34+ progenitors were transduced with lentivirus co-expressing GFP with shRNA against luciferase (shLuc), RPS19 (shRPS19) or RPL11 (shRPL11). After 36 hours cells GFP+ cells were differentiated in erythroid media in the presence or absence of 5 μM SD208 for 15 days. Cells were counted and assessed for cell surface expression of CD235. (a) The percentage of CD235+ cells was multiplied by the cell count and values were compared as a percentage of untreated controls. (b) Normalizing values relative to untreated RPS19-insufficiency progenitors facilitates direct comparison of erythropoiesis between untreated and SD208-treated cultures. (c) Approximately 3000 cells were removed from differentiating treatments at day 6 and NLK activity was assessed. Values were normalized to reflect a fold induction relative to untreated controls. (d) Lin-Kit+ hematopoietic progenitors were obtained from three mouse embryos expressing tetracycline-inducible shRNA against RPS19 at day E14.5 or three untreated mice, and thee mature RPL11^+/+ or three mature RPL11^+/lox mice treated with tamoxifen for eight weeks. Cells were grown in the presence or absence of doxycycline and/or SD208 for eight days prior to counting and assessing for ter119 surface expression. Values were expressed as a percentage relative to untreated controls (e) and directly comparing the effect of SD208 on erythropoiesis in ribosomal-insufficiency by expressing values relative to untreated ribosome-insufficient cultures (f). At day 5 approximately 3000 cells were assayed for NLK kinase assay (g). CD34+ HSPCs were isolated from three healthy control and three DBA patient mononuclear bone marrow aspirates by magnetic bead sorting and differentiated in the presence or absence of SD208 for 14 days. After counting the total cell population, the ratio of CD235+ erythroblasts was determined by flow cytometry and number of CD235+ erythroblasts calculated. This was expressed as a percentage of the average number of erythroid cells present in untreated healthy controls. (h) The direct effect of SD208 on erythroid expansion in DBA patient samples was calculated following normalization of untreated DBA patient samples as 1-fold, (i) At day five, 3000 cells from each of the differentiating cultures was analyzed for NLK activity by kinase assay and are expressed as a fold induction relative to untreated healthy controls.

CD11b+ myeloid cells = assay: CD11b+ myeloid expansion of differentiating human cord blood CD34+ progenitors; format: cell-based; conditions: control (shLuc), exogenous TGFβ 5 ng/ml
Experimental: FIG. 7. SD208 increases erythroid expansion in human model of DBA through inhibition of NLK and not TGFβ. (a) Differentiating cord blood CD34+ progenitors were transduced with shRNA against luciferase or RPS19 and treated with inhibitors at working concentrations for TGFβ inhibition every three days. Cells were counted and CD235+ erythroid cells were assessed by flow cytometry after 15 days. (b) Prior to flow cytometry, 5000 cells per group were taken from differentiating cultures for NLK kinase assay. (c) CD34+ progenitors were transduced with shRNA against luciferase or RPS19 and non-targeting or siRNA against NLK. After sorting, samples were split into two groups and either treated with vehicle or SD208 every three days. After 15 days cells were counted and subject to flow cytometry to compare the expansion of maturing CD235+ erythroid (left panel) and CD11b+ myeloid cells (right panel). […] Cells were counted and CD235+ erythroid (D—upper) and CD11b+ myeloid cell (D—lower) percentages were determined by flow cytometry. The number of erythroid or myeloid cells is expressed as a percentage of the number of that lineage with no cytokine or drug treatment.
FIG. 9. […] Cells were counted and the percentage expressing CD235+ erythroid (left) and CD11b+ myeloid (right) was determined by flow cytometry. […] Values are expressed as a fold induction relative to untreated. (Panel C) Transduced and sorted CD34+ progenitors were cultured in methylcellulose in the presence or absence of metformin for 16 days and BFU-E erythroid (left) and CFU-GM myeloid (right) colonies scored. […] To directly compare the effect of metformin in each group, metformin-treated cultures were normalized to untreated cultures and are expressed as a fold induction of the untreated control. […]
Cells were incubated with human Fc receptor binding inhibitor (#14-9161-73; eBioscience) followed by primary antibodies CD235-APC (#306607; BioLegend) and CD11b-PE/Cy5 (#101209; BioLegend). Data were collected on a DxP10 flow cytometer (Cytek) and analyzed by using FlowJo Software, v.9.7.2.

CD235+ erythroblasts [4] = assay: CD235+ erythroid expansion of differentiating human cord blood CD34+ progenitors (shRPS19/shRPL11 DBA models), flow cytometry; format: cell-based; conditions: RPS19-insufficient progenitors, exogenous TGFβ

CC(=O)N[C@@H](CSC(=O)[C@]1([C@@H](O)C(C)C)NC(=O)[C@H](C)[C@@H]1O)C(=O)O [lactacystin]
c-Myb protein levels (c-Myb [1]; Kp53A1, 16 hours post p53 activation, lactacystin 10 μM, chloroquine 30 μM): sustained | c-Myb phosphorylation (c-Myb [1]; Kp53A1, after p53 activation, up to 48 h): sustained phosphorylation to 48 h

CN[C@@H]1C[C@H]2O[C@@](C)([C@@H]1OC)n1c3ccccc3c3c4c(c5c6ccccc6n2c5c31)C(=O)NC4 [staurosporine]
c-Myb phosphorylation, fold increase relative to controls (c-Myb [2]; 1 µM): 1.3 fold | c-Myb ubiquitination, fold of control (c-Myb [2]; Kp53A1 lysate with elevated p53 activity, 1 μM staurosporine, 7.4-fold without inhibitor): 2.3 fold

TGFβ: exogenous TGFβ (5 ng/ml)
reduction of erythroid progenitors (CD235+ erythroblasts [3]): 85% | reduction of myeloid progenitors (CD11b+ myeloid cells): 80% | additional reduction of erythroid expansion (CD235+ erythroblasts [4]): 86%
